# Laboratory results from patent US7968526B2, “Antisense oligonucleotides directed to ribonucleotide reductase R2 and uses thereof in the treatment of cancer” (Lorus Therapeutics Inc., priority 2003, dated 2011).
# Assay: Tissue distribution in the rat (CE method)
# Assay type: in vivo
# Method: The toxicokinetics and tissue distribution of SEQ ID NO:1 (and related oligonucleotide metabolites obtained from exonuclease-mediated chain shortening) were determined in rats and monkeys. In addition to investigating the pharmacokinetics and tissue distribution of SEQ ID NO:1, the purpose of the studies was to correlate adverse effects in the animal studies to the concentrations of SEQ ID NO:1 (and metabolites) in tissue and blood. A capillary electrophoresis (CE) method was used to measure the concentrations of SEQ ID NO:1 (and metabolites) in plasma and tissues.
# The concentrations of SEQ ID NO:1 (and related n+1, n−1 to n−15 oligonucleotide metabolites) in the following rat and monkey tissues were measured by a validated CE method (Southwest Bio-Labs, Inc.): kidney, liver, spleen, heart, lung, bone marrow (rat), lymph nodes (monkey) and brain tissues. The tissue samples were collected from the designated animals as described in the 21-day toxicity studies: rats, administered bolus intravenous injections of SEQ ID NO:1 every other day at 2, 10, or 50 mg/kg; and monkeys administered SEQ ID NO:1 by continuous intravenous infusion at 2, 10, or 50 mg/kg/day.
# [1] = 10 mg/kg bolus i.v. every other day, 4 hrs post last dose
# [2] = 10 mg/kg bolus i.v. every other day, 48 hrs post first dose
# [3] = 50 mg/kg bolus i.v. every other day, 4 hrs post first dose
# [4] = 50 mg/kg bolus i.v. every other day, 4 hrs post last dose
# [5] = 50 mg/kg bolus i.v. every other day, 48 hrs post first dose
substance,measurement,setting,value
"5′-GGCTAAATCGCTCCACCAAG-3′ (all phosphorothioate, sugars by position and methylation of C not given here) [SEQ ID NO: 1, fully phosphorothioated antisense oligonucleotide that hybridizes to the coding region of R2 mRNA]","Mean Concentration SEQ ID NO: 1, Spleen",[1],3.2 µg/g
same,"Mean Concentration total metabolites (n + 1 through n − 13), Bone Marrow",[1],6.6 µg/g
same,"Mean Concentration total metabolites (n + 1 through n − 13), Brain",[1],BDL (below detectable limits (1 μg/g rat; 0.2 μg/g monkey))
same,"Mean Concentration total metabolites (n + 1 through n − 13), Heart",[1],9.4 µg/g
same,"Mean Concentration total metabolites (n + 1 through n − 13), Kidney",[1],613.5 µg/g
same,"Mean Concentration total metabolites (n + 1 through n − 13), Liver",[1],105.9 µg/g
same,"Mean Concentration total metabolites (n + 1 through n − 13), Lung",[1],3.3 µg/g
same,"Mean Concentration total metabolites (n + 1 through n − 13), Spleen",[1],13.5 µg/g
same,"Mean Concentration SEQ ID NO: 1, Bone Marrow",[2],BDL (below detectable limits (1 μg/g rat; 0.2 μg/g monkey))
same,"Mean Concentration SEQ ID NO: 1, Brain",[2],BDL (below detectable limits (1 μg/g rat; 0.2 μg/g monkey))
same,"Mean Concentration SEQ ID NO: 1, Heart",[2],BDL (below detectable limits (1 μg/g rat; 0.2 μg/g monkey))
same,"Mean Concentration SEQ ID NO: 1, Kidney",[2],13.3 µg/g
same,"Mean Concentration SEQ ID NO: 1, Liver",[2],4.7 µg/g
same,"Mean Concentration SEQ ID NO: 1, Lung",[2],BDL (below detectable limits (1 μg/g rat; 0.2 μg/g monkey))
same,"Mean Concentration SEQ ID NO: 1, Spleen",[2],BDL (below detectable limits (1 μg/g rat; 0.2 μg/g monkey))
same,"Mean Concentration total metabolites (n + 1 through n − 13), Bone Marrow",[2],BDL (below detectable limits (1 μg/g rat; 0.2 μg/g monkey))
same,"Mean Concentration total metabolites (n + 1 through n − 13), Brain",[2],BDL (below detectable limits (1 μg/g rat; 0.2 μg/g monkey))
same,"Mean Concentration total metabolites (n + 1 through n − 13), Heart",[2],BDL (below detectable limits (1 μg/g rat; 0.2 μg/g monkey))
same,"Mean Concentration total metabolites (n + 1 through n − 13), Kidney",[2],68.4 µg/g
same,"Mean Concentration total metabolites (n + 1 through n − 13), Liver",[2],8.3 µg/g
same,"Mean Concentration total metabolites (n + 1 through n − 13), Lung",[2],BDL (below detectable limits (1 μg/g rat; 0.2 μg/g monkey))
same,"Mean Concentration total metabolites (n + 1 through n − 13), Spleen",[2],BDL (below detectable limits (1 μg/g rat; 0.2 μg/g monkey))
same,"Mean Concentration SEQ ID NO: 1, Bone Marrow",[3],13.2 µg/g
same,"Mean Concentration SEQ ID NO: 1, Brain",[3],BDL (below detectable limits (1 μg/g rat; 0.2 μg/g monkey))
same,"Mean Concentration SEQ ID NO: 1, Heart",[3],14.5 µg/g
same,"Mean Concentration SEQ ID NO: 1, Kidney",[3],86.1 µg/g
same,"Mean Concentration SEQ ID NO: 1, Liver",[3],51.9 µg/g
same,"Mean Concentration SEQ ID NO: 1, Lung",[3],13.3 µg/g
same,"Mean Concentration SEQ ID NO: 1, Spleen",[3],32.7 µg/g
same,"Mean Concentration total metabolites (n + 1 through n − 13), Bone Marrow",[3],19.5 µg/g
same,"Mean Concentration total metabolites (n + 1 through n − 13), Brain",[3],BDL (below detectable limits (1 μg/g rat; 0.2 μg/g monkey))
same,"Mean Concentration total metabolites (n + 1 through n − 13), Heart",[3],13.0 µg/g
same,"Mean Concentration total metabolites (n + 1 through n − 13), Kidney",[3],187 µg/g
same,"Mean Concentration total metabolites (n + 1 through n − 13), Liver",[3],79.9 µg/g
same,"Mean Concentration total metabolites (n + 1 through n − 13), Lung",[3],21.8 µg/g
same,"Mean Concentration total metabolites (n + 1 through n − 13), Spleen",[3],19.9 µg/g
same,"Mean Concentration SEQ ID NO: 1, Bone Marrow",[4],29.9 µg/g
same,"Mean Concentration SEQ ID NO: 1, Brain",[4],BDL (below detectable limits (1 μg/g rat; 0.2 μg/g monkey))
same,"Mean Concentration SEQ ID NO: 1, Heart",[4],20.8 µg/g
same,"Mean Concentration SEQ ID NO: 1, Kidney",[4],286.6 µg/g
same,"Mean Concentration SEQ ID NO: 1, Liver",[4],91.6 µg/g
same,"Mean Concentration SEQ ID NO: 1, Lung",[4],18.2 µg/g
same,"Mean Concentration SEQ ID NO: 1, Spleen",[4],18.4 µg/g
same,"Mean Concentration total metabolites (n + 1 through n − 13), Bone Marrow",[4],67.4 µg/g
same,"Mean Concentration total metabolites (n + 1 through n − 13), Brain",[4],BDL (below detectable limits (1 μg/g rat; 0.2 μg/g monkey))
same,"Mean Concentration total metabolites (n + 1 through n − 13), Heart",[4],42.5 µg/g
same,"Mean Concentration total metabolites (n + 1 through n − 13), Kidney",[4],1373.6 µg/g
same,"Mean Concentration total metabolites (n + 1 through n − 13), Liver",[4],279.7 µg/g
same,"Mean Concentration total metabolites (n + 1 through n − 13), Lung",[4],30.0 µg/g
same,"Mean Concentration total metabolites (n + 1 through n − 13), Spleen",[4],60.8 µg/g
same,"Mean Concentration SEQ ID NO: 1, Bone Marrow",[5],2.8 µg/g
same,"Mean Concentration SEQ ID NO: 1, Brain",[5],BDL (below detectable limits (1 μg/g rat; 0.2 μg/g monkey))
same,"Mean Concentration SEQ ID NO: 1, Heart",[5],2.5 µg/g
same,"Mean Concentration SEQ ID NO: 1, Kidney",[5],48.2 µg/g
same,"Mean Concentration SEQ ID NO: 1, Liver",[5],19.8 µg/g
same,"Mean Concentration SEQ ID NO: 1, Lung",[5],2.1 µg/g
same,"Mean Concentration SEQ ID NO: 1, Spleen",[5],1.4 µg/g
same,"Mean Concentration total metabolites (n + 1 through n − 13), Bone Marrow",[5],4.4 µg/g
same,"Mean Concentration total metabolites (n + 1 through n − 13), Brain",[5],BDL (below detectable limits (1 μg/g rat; 0.2 μg/g monkey))
same,"Mean Concentration total metabolites (n + 1 through n − 13), Heart",[5],7.2 µg/g
same,"Mean Concentration total metabolites (n + 1 through n − 13), Kidney",[5],287.6 µg/g
same,"Mean Concentration total metabolites (n + 1 through n − 13), Liver",[5],68.7 µg/g
same,"Mean Concentration total metabolites (n + 1 through n − 13), Lung",[5],3.8 µg/g
same,"Mean Concentration total metabolites (n + 1 through n − 13), Spleen",[5],2.2 µg/g
same,Concentrations in the brain,lower limit for detection 1 μg/g,below the limits of detection
